Laboratory results as given in patent US20260041744A1, “Methods for Treating Pompe Disease” (Amicus Therapeutics, Inc., priority 2022, published 2026).
Entries after “also recorded” stand apart in the source; their conditions may differ.

What was measured:
[1] = system: adult subjects with late-onset Pompe disease (LOPD); assay: Study ATB200-03: global test and responder analyses on 6MWD, FVC, MMT; type: in vivo, human
Description: To support the interpretation of clinical benefit, a composite subject-level response was defined based on the totality of the treatment outcome data. Subjects were classified by an ordinal response variable consisting of significant improvement, moderate improvement, or minor/no improvement based on treatment outcomes.
Thresholds for clinically relevant changes for 6MWD and FVC in Pompe specifically are not well established, however a large body of data exists from other neuromuscular and chronic respiratory diseases, especially interstitial pulmonary fibrosis (IPF). […] Accordingly, these thresholds were applied to analyses of Study ATB200-03 data.
Additional post hoc patient-level analyses were conducted using these thresholds for 6MWD (±6%) and FVC (±3%) separately and combined.

adult subjects with LOPD = assay: Study ATB200-07 (OLE of PROPEL): 6MWD and % predicted 6MWD; type: in vivo, human
Description: The study doses and schedule are maintained from Study ATB200-03.
Efficacy data are presented in this summary as change from the baseline of Study ATB200-03 (OLE-ES Population).

[2] = system: adult subjects with late-onset Pompe disease (LOPD); assay: Study ATB200-03: summary across primary, secondary and biomarker endpoints (incl. SVC, FVC supine, MIP, MEP, SNIP, MMT upper/overall, QMT, TUG); conditions: ITT excluding outlier subject
Description: • overall physical wellbeing • effort of breathing • muscle strength • muscle function • ability to move around • activities of daily living • energy level • level of muscular pain • actual value of the subject's functional status (improving, stable, or declining) at Week 52, as measured by the Physician's Global Impression of Change • change from baseline to Week 52 in the following measures of pulmonary function, as follows: • sitting FVC (% predicted) • MIP (cmH2O) • MIP (% predicted) • MEP (cmH2O) • MEP (% predicted) • SNIP (cmH2O)

[3] = system: adults with Pompe disease; assay: Study ATB200-02: urine Hex4; conditions: for mean reduction from baseline in urine Hex4: b512 prints a minus sign;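 on all read-outs here: Hex4 is the urine glucose tetrasaccharide biomarker, measured at regular intervals during study follow-up and compared with each patient's baseline value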
Protocol: The change from baseline (CFBL) in 6MWD, % predicted sitting FVC, manual muscle test (MMT) and biomarkers—urine glucose tetrasaccharide (Hex4) and serum creatine kinase (CK)—were assessed at regular intervals.

[4] = system: adult subjects with late-onset Pompe disease (LOPD); assay: Study ATB200-03 (PROPEL): PROMIS-Physical Function; type: in vivo, human; conditions: for CHG to Week 52 in PROMIS-Physical Function total score, LS Mean: MMRM, actual time point of assessments
Protocol: The test for the primary endpoint was conducted first at the 1-sided 0.025 significance level, and if significant, the ordered key secondary endpoints were similarly tested at the same significance level. The statistical significance of the key secondary endpoints was interpreted following a hierarchical testing order, each at the 1-sided alpha level of 0.025. […] Primary analyses of efficacy were performed using the mixed-effect model for repeated measures (MMRM) for 6MWD in Intent-to-treat Observed Population (ITT) that includes all available, observed data without any missing data imputation (ITT-OBS) and analysis of covariance (ANCOVA) for all other endpoints in the Intent-to-Treat-Last Observation Carried Forward (ITT-LOCF) Population. A nonparametric randomization based ANCOVA was specified as the first sensitivity analysis for 6MWD and FVC. […] For the purposes of data presentation in this document, 2-sided p-values are reported hereafter, except as otherwise noted.

[5] = Excluding Subject 4005-2511, change from baseline to Week 52, 2-sided p 0.010
[6] = ITT Population, change from baseline to Week 52, 2-sided p 0.022

ATB200/miglustat: two-component therapy: cipaglucosidase alfa (ATB200) administered in conjunction with miglustat (AT2221), a stabilizer of cipaglucosidase alfa
Wilcoxon rank sum test on sum of ranks for 6MWD and % predicted FVC: Mean Score [1, 5]: 66.5
Wilcoxon rank sum test on sum of ranks for 6MWD and % predicted FVC: Sum of Scores [1, 5]: 5587.5
Wilcoxon rank sum test on sum of ranks for 6MWD and FVC: Mean Score [1, 6]: 66.5
Wilcoxon rank sum test on sum of ranks for 6MWD and FVC: Sum of Scores [1, 6]: 5587.5
post hoc global test on 6MWD and % predicted FVC ([1]; Wilcoxon rank-sum on summed ranks, listed as cipaglucosidase alfa/miglustat): greater improvement in either 6MWD or FVC; also recorded: greater improvement in subjects treated with cipaglucosidase alfa/miglustat versus alglucosidase alfa/placebo
patient-level responder analyses 6MWD, FVC, MMT ([1]; thresholds ±6%, ±3%, ±7%, overall population, listed as cipaglucosidase alfa/miglustat): a greater proportion of subjects in the overall population treated with cipaglucosidase alfa/miglustat demonstrated clinically meaningful improvement and a smaller proportion demonstrated clinically meaningful worsening across these 3 endpoints; also recorded: significantly greater proportion of subjects with improvement on both domains
6MWD course to Week 104 (adult subjects with LOPD; OLE-ES Population, continued cipaglucosidase alfa/miglustat): showed an improvement through Study ATB200-03, which was then maintained through Week 104
6MWD, mean BSL (adult subjects with LOPD; Study ATB200-03 baseline, OLE-ES Population excluding Subject 4005-2511): 354.9 m
6MWD, mean 52-wk CFB (adult subjects with LOPD; change from ATB200-03 baseline at Week 52 (= ATB200-07 baseline), OLE-ES excluding Subject 4005-2511): 20.6 m
6MWD, mean 104-wk CFB (adult subjects with LOPD; change from ATB200-03 baseline at Week 104, alglucosidase alfa/placebo group switched to cipaglucosidase alfa/miglustat at Week 52, OLE-ES excluding Subject 4005-2511): 20.2 m
parameters with statistically significant decline from baseline at Week 52 [2]: SVC sitting
parameters with statistically significant improvement from baseline at Week 52 [2]: 6MWD, % predicted 6MWD, MMT lower extremities, MMT upper extremities, overall MMT, PROMIS-Physical Function, PROMIS-Fatigue, CK, and Hex4
Urinary Hex4, % CFBL mean ([3]; Ambulatory ERT-experienced, 12 months): −36.11%
Urinary Hex4, % CFBL mean ([3]; Ambulatory ERT-experienced, 24 months): −11.8%
Urinary Hex4, % CFBL mean ([3]; Ambulatory ERT-experienced, 36 months): −35.1%
Urinary Hex4, % CFBL mean ([3]; Ambulatory ERT-experienced, 48 months): −4.0%
Urinary Hex4, % CFBL mean ([3]; Ambulatory ERT-naïve, 12 months): −40.7%
Urinary Hex4, % CFBL mean ([3]; Ambulatory ERT-naïve, 24 months): −49.5%
Urinary Hex4, % CFBL mean ([3]; Ambulatory ERT-naïve, 36 months): −39.3%
Urinary Hex4, % CFBL mean ([3]; Ambulatory ERT-naïve, 48 months): −39.9%
mean reduction from baseline in urine Hex4 ([3]; Cohort 2 (non-ambulatory ERT-experienced), 12 months, listed as cipaglucosidase alfa plus miglustat): 15.6%
mean reduction from baseline in urine Hex4 ([3]; Cohort 2 (non-ambulatory ERT-experienced), 12 months, listed as cipaglucosidase alfa/miglustat): −15.6%
mean reduction from baseline in urine Hex4 ([3]; Cohort 2, 24 months, listed as cipaglucosidase alfa plus miglustat): 34.1%
mean reduction from baseline in urine Hex4 ([3]; Cohort 2, 24 months, listed as cipaglucosidase alfa/miglustat): −34.1%
mean reduction from baseline in urine Hex4 ([3]; Cohort 2, 36 months, listed as cipaglucosidase alfa plus miglustat): 36.5%
mean reduction from baseline in urine Hex4 ([3]; Cohort 2, 36 months, listed as cipaglucosidase alfa/miglustat): −36.5%
mean reduction from baseline in urine Hex4 ([3]; Cohort 2, 48 months, listed as cipaglucosidase alfa plus miglustat): 9.4%
mean reduction from baseline in urine Hex4 ([3]; Cohort 2, 48 months, listed as cipaglucosidase alfa/miglustat): −4.0%
patients with abnormal baseline Hex4 who had normal Hex4 levels at Month 48 ([3]; ERT-experienced (four of five)): 80.0%
patients whose urine Hex4 decreased numerically from baseline (n/N) ([3]; ERT-experienced, 12 months): 16/16
patients whose urine Hex4 decreased numerically from baseline (n/N) ([3]; ERT-experienced, 24 months): 11/14
patients whose urine Hex4 decreased numerically from baseline (n/N) ([3]; ERT-experienced, 36 months): 11/12
patients whose urine Hex4 decreased numerically from baseline (n/N) ([3]; ERT-experienced, 48 months): 6/9
patients with abnormal baseline Hex4 who returned to normal Hex4 levels at Month 48 ([3]; ERT-naïve ambulatory (one of four)): 25.0%
patients whose urine Hex4 decreased numerically from baseline (n/N) ([3]; ERT-naïve, 12 months): 5/6
patients whose urine Hex4 decreased numerically from baseline (n/N) ([3]; ERT-naïve, 24 months): 5/6
patients whose urine Hex4 decreased numerically from baseline (n/N) ([3]; ERT-naïve, 36 months): 4/5
patients whose urine Hex4 decreased numerically from baseline (n/N) ([3]; ERT-naïve, 48 months): 4/5
Urinary Hex4, % CFBL mean ([3]; Non-ambulatory ERT-experienced, 12 months): −15.6%
Urinary Hex4, % CFBL mean ([3]; Non-ambulatory ERT-experienced, 24 months): −34.1%
Urinary Hex4, % CFBL mean ([3]; Non-ambulatory ERT-experienced, 36 months): −36.5%
Urinary Hex4, % CFBL mean ([3]; Non-ambulatory ERT-experienced, 48 months): −9.4 ) %
PROMIS-Physical Function Short Form 20a total score Absolute Value, Median ([4]; Baseline, ITT, ERT-naïve Subjects excluding Subject 4005-2511): 76.00
PROMIS-Physical Function Short Form 20a total score Absolute Value, Mean ([4]; Baseline, ITT, ERT-naïve Subjects excluding Subject 4005-2511, score 20 to 100, higher = less impact): 74.65
mean (SD) change in PROMIS-Physical Function total score from baseline to Week 52 ([4]; ERT-experienced Population): 1.8 (7.18)
mean (SD) change in PROMIS-Physical Function total score from baseline to Week 52 ([4]; ERT-naïve excluding Subject 4005-2511): 2.5 (8.62)
Change in PROMIS-Physical Function total score baseline to Week 52, LS means (SE) from ANCOVA ([4]; ITT-LOCF, ERT-naïve Subjects excluding Subject 4005-2511): 1.87 (1.917)
CHG to Week 52 in PROMIS-Physical Function total score, LS Mean ([4]; ITT-OBS excluding Subject 4005-2511 (overall)): 2.2
CHG to Week 52 in PROMIS-Physical Function total score, LS Mean ([4]; ITT-OBS excluding Subject 4005-2511, ERT-naïve Subjects): 2.6
